Measurements: patent US8957106B2, “Iminosugar treatment of tumors” (The Chancellor, Masters and Scholars of the University of …, priority 2007, dated 2015)

What was measured:
SKMel28 cells = experiment: Acidic vesicular organelles, Lysotracker Red vital staining; assay type: cell-based; conditions: SKMel28, 6 μM, 3 h and 8 h
Procedure: (§1) Tumor cells were cultured 24 h on cover glasses, treated with GC2, and processed as described in Negroiu, G., et al. J. Biol. Chem. 278, 27035-27042, 2003. The acidic vesicular compartments were detected following incubation of live cells GC2 treated with Lysotracker® Red (0.125 μl/ml culture medium) for 30 min at 37° C. Fixed cells were incubated with the following primary antibodies: mouse anti-EEA1 (1:100), human-CD107A (anti-Lamp1) (1:50), a mouse anti-α tubulin (1:200) followed by an appropriate Alexa Fluor® 488 conjugated secondary antibodies (1:400) or with Alexa Fluor® 594 phalloidin. Finally, nuclei of fixed cells were stained with 5 mM Hoechst dye 33342. Cells were washed three times with PBS and mounted in Vectashield® mounting medium.
Acidic compartments of untreated and GC2-treated tumor cells were differentiated using a lysosomotropic agent LysoTracker® Red (LT), a marker for tracking acidic organelles in live cells. These probes can be used to investigate the acidification of lysosomes and alteration of their function or trafficking that occur in the cell. In untreated SKMel28 cells (FIG. 5Aa) the LT probe has a moderate fluorescence as fine punctate structures distributed within the entire cell cytoplasm and occasionally at the cell periphery.

B16F10 melanoma cells = experiment: MTS cell viability assay, B16F10; assay type: cell-based, murine; conditions: Mus musculus, B16-F10, B16F10, 24 h, read-out: IC50 (concentration reducing number of viable cells by 50%)
Procedure: (§2) Cells were cultured at indicated densities for 24 h, medium was removed and the incubation was continued in a fresh culture medium containing various GC2 or DTIC concentrations. In control experiments, cells were grown in a culture medium containing GC2 buffer.
(§3) The standard […] (MTS)-3-(4,5-dimethylthiazol-2-yl)-5-(3-carboxymethoxyphenyl)-2-(4-sulphophenyl)-2H-tetrazolium inner salt solution assay was performed in order to examine the cytotoxic/cytostatic effect of GC2 on melanoma cells. Briefly, 7.5×10^3 cells were seeded in 96-well microtiter plates (Nunc). After an overnight incubation, serial dilutions of GC2 or DTIC were added in triplicate to a final volume of 100 μl. The blank was represented by a culture medium without cells containing the highest GC2 or DTIC concentration. After 24 h of incubation 20 μl MTS was added to each well and all samples were incubated for 3 h at 37° C. An absorbance of each well was read at 450 nm in a microplate reader. A percentage of cell viability was calculated considering that 100% cell viability was represented by an absorbance of untreated samples […]. Alternatively, the number of viable cells was determined by Trypan blue exclusion test. Melanoma cells treated with GC2 were trypsinized and cells negative for blue staining (viable cells) were counted using a hemocytometer. […]

MelJuSo cells = experiment: Autophagic vesicle detection with GFP-LC3; assay type: cell-based, human; conditions: MelJuSo transfected with GFP-LC3, 6 μM
Procedure: LC3 is a protein recruited to an autophagosome membrane. The recruitment process is essential for autophagy and LC3 is a specific marker of the process, see Kabeya Y., et al., EMBO J. 19, 5720-5728, 2000. […] Cells were transiently transfected with GFP-LC3 plasmid DNA using the liposomal transfection kit Lipofectamine PLUS™ Reagent (Gibco-BRL) as described in Negroiu, G., et al., J. Biol. Chem. 278, 27035-27042, 2003. 24 h after transfection cells were treated with GC2 for the indicated time periods and analyzed by fluorescence microscopy.
The localization of LC3 (microtubule-associated protein1 light chain 3), which is an established marker for autophagosome membranes, see e.g. Kabeya, Y., et al. EMBO J., 19, 5720-5728, 2000, was examined in cells treated with GC2. LC3 is newly synthetised and recruited to autophagosomal membranes when autophagy is activated and is detected as cup- and ring shaped structures, see e.g. Mizushima, N. et al. Int. J. Biochem. & Cell Biol. 36, 2491-2502, 2004. […] In GC2-treated MNT-1 cells, very few vacuoles were observed by a phase contrast microscopy. The MNT-1 cell line was also the least positive for autophagic marker (data not shown).

MNT-1 melanoma cells = experiment: MTS cell viability assay, MNT-1; assay type: cell-based; conditions: Homo sapiens, MNT-1, 24 h, read-out: IC50 (concentration reducing number of viable cells by 50%)
Procedure: as §2, §3

[1] = tested on: actin network in SKMel28 and MelJuSo cells; experiment: Actin staining with Alexa Fluor 594 phalloidin, fluorescence microscopy; assay type: cell-based; conditions: 6 μM, 3 h
Procedure: as §1
Whether tumor cell compartments and cytoskeletal elements are altered by GC2 treatment was analysed utilizing molecular markers for two main cell compartments: 1) EEA1 for early endosomes, which are accessed first by all endocytosed molecules and 2) Lamp-1 for lysosomes, the major degradative compartment. Actin filaments were labeled with Alexa Fluor® 594 phalloidin and microtubules with an anti-α-tubulin antibody; all samples were analyzed by fluorescence microscopy. […] Following GC2 treatment both endocytic markers were redistributed in large substructures detected also by phase contrast microscopy. […]

IC50 (B16F10 melanoma cells): 7 to 8 µM
IC50 (MNT-1 melanoma cells): 7 to 8 µM
SMILES: CC(=O)O.CCCCCCCCCN1[C@@H](CO)[C@@H](O)[C@H](O)[C@@H]1CCCCCCCC [GC2, (2S,3R,4R,5S)-3,4-dihydroxy-N-nonyl-5-octyl-2 hydroxymethylpyrrolidinium acetate]
Lysotracker Red probe distribution (acidic vesicles) (SKMel28 cells): accumulates in large, bright red fluorescent vesicles in a time dependent manner
GFP-LC3 distribution (autophagic marker) (MelJuSo cells): punctate pattern of bright fluorescence
pattern of the fluorescent actin marker [1]: disrupted
